The test system of one test is Wistar rats. The test is described as follows: Blood growth hormone (GH) over time after intraduodenal administration. Type of test: in vivo. Here is the method:
Statistical processing was performed by using ANOVA and Fisher's test.
Male, 8 to 9-week Wistar rats were used.

The next test has as its system ddY mice. The test is described as follows: Small intestinal transit (Evans Blue mobility), gastrointestinal motility. The conditions noted are these: ddY mice fasted 18 hours, 30 minutes before test meal. In kind it is in vivo. As for the experimental part:
The symbol ** in the figure means a statistically significant difference (P<0.01) when comparing ornithine hydrochloride-administered group (3 g/kg) with control group, and the symbol in the figure means a statistically significant difference (P<0.001) when comparing ornithine hydrochloride-administered group (5 g/kg) with control group. Statistical processing was performed by using ANOVA and Fisher's test.
Gastrointestinal motility function was examined through small intestinal transit measurements according to the following testing method.
Male, 5 to 7-week ddY mice were used. […] After 30 minutes, the mice were orally administered with a dyed test meal (Evans Blue 5%, carboxymethyl cellulose 1%). The animals were killed by cervical dislocation after 5 minutes, and immediately cut open in the stomach to remove the whole small intestine. For evaluation of the gastrointestinal motility, the full length of the small intestine, and the length from the pylorus to the farthest point marked by the movement of Evans Blue were measured. Evans Blue mobility was calculated according to the following equation, and used as an index.
Mobility (%)=(the length from the pylorus to the farthest point marked by the movement of Evans Blue/the full length of small intestine)×100

2 molecules from patent US20170281582A1, “ENHANCER FOR EATING ACTIVITY AND/OR GASTROINTESTINAL ACTIVITY” (KYOWA HAKKO BIO CO., LTD., priority 2012, published 2017) can be followed below.

For the molecule D-Lys3-GHRP-6, the “effect of the antagonist alone on blood GH” value in the test with Wistar rats (D-Lys3-GHRP-6 0.8 mg/kg i.v. alone) was “does not show the effect”. The “GH concentration increasing effect of ornithine in presence of ghrelin antagonist” value in the test on Wistar rats (D-Lys3-GHRP-6 0.8 mg/kg i.v. plus ornithine hydrochloride 5 g/kg, vs ornithine hydrochloride alone, P<0.05 (FIG. 1)) is recorded as “inhibited”.
In the case of `Cl.NCCC[C@H](N)C(=O)O` [ornithine hydrochloride, L-ornithine hydrochloride], the “small intestinal transit compared to the control group” value is listed as “significantly increased” with ddY mice (oral 3 g/kg (body weight), P<0.01 (FIG. 3)) and “significantly increased” in the test with ddY mice (oral 5 g/kg (body weight), P<0.001 (FIG. 3)).
